EC50 data for 13 molecules are collected here from patent US10544102B2, “Benzazepine dicarboxamide compounds with secondary amide function” (Hoffmann-La Roche Inc., priority 2017, dated 2020).

Structures are written as SMILES. pEC50: −log10 of the molar value.

One experiment deals with T1, human TLR8 (Homo sapiens, UniProt Q9NR97).
T1 construct: host or cells: HEK-Blue human TLR8 cells (HEK293-derived reporter line)
T1 sequence (Q9NR97 27-1041): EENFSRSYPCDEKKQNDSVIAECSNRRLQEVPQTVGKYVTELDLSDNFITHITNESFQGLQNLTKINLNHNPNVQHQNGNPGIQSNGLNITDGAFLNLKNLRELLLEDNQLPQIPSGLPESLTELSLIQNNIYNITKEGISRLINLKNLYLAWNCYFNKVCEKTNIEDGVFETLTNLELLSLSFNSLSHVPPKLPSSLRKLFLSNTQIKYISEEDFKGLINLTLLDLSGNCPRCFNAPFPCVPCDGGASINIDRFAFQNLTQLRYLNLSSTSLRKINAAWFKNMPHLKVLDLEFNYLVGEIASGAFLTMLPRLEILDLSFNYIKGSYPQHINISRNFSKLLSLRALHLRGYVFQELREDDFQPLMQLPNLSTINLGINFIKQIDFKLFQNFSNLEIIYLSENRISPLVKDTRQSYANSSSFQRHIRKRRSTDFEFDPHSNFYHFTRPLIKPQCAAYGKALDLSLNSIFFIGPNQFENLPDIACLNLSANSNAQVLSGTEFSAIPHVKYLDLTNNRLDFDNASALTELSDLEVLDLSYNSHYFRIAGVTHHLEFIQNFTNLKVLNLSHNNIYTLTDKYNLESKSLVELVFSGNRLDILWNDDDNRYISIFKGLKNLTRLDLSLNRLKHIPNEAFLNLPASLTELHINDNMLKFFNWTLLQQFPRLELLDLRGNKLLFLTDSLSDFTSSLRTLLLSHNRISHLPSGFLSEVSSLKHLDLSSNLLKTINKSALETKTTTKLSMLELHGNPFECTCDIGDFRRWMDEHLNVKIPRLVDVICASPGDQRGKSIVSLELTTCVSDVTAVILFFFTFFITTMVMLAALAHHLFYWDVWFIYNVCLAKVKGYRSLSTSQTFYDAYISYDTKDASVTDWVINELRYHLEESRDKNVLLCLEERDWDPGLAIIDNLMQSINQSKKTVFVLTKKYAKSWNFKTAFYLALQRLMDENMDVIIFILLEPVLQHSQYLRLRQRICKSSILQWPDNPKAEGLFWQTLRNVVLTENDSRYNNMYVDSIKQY
Put plainly: HEK-Blue human TLR8 cells NF-κB SEAP reporter assay. As to conditions: stimulation for 20 hours, Quanti Blue 640 nm. The format is cell-based. The text has this:
(§1) For TLR8 and TLR7 activity testing, HEK-Blue human TLR8 or TLR7 cells (Invivogen, San Diego, Calif., USA) are used, respectively. These cells are designed for studying the stimulation of human TLR8 or TLR7 by monitoring the activation of NF-κB. A SEAP (secreted embryonic alkaline phosphatase) reporter gene is placed under the control of the IFN-b minimal promoter fused to five NF-κB and AP-1-binding sites. Therefore the reporter expression is regulated by the NF-κB promoter upon stimulation of human TLR8 or TLR7 for 20 hours. The cell culture supernatant SEAP reporter activity was determined using Quanti Blue kit (Invivogen, San Diego, Calif., USA) at a wavelength of 640 nm, a detection medium that turns purple/blue in the presence of alkaline phosphatase. EC50 values were determined using Activity Base analysis (ID Business Solution, Limited).

For another experiment, the target named is T2, human TLR7 (Homo sapiens, UniProt Q9NYK1).
T2 construct: host or cells: HEK-Blue human TLR7 cells (HEK293-derived reporter line)
T2 sequence (Q9NYK1 27-1049): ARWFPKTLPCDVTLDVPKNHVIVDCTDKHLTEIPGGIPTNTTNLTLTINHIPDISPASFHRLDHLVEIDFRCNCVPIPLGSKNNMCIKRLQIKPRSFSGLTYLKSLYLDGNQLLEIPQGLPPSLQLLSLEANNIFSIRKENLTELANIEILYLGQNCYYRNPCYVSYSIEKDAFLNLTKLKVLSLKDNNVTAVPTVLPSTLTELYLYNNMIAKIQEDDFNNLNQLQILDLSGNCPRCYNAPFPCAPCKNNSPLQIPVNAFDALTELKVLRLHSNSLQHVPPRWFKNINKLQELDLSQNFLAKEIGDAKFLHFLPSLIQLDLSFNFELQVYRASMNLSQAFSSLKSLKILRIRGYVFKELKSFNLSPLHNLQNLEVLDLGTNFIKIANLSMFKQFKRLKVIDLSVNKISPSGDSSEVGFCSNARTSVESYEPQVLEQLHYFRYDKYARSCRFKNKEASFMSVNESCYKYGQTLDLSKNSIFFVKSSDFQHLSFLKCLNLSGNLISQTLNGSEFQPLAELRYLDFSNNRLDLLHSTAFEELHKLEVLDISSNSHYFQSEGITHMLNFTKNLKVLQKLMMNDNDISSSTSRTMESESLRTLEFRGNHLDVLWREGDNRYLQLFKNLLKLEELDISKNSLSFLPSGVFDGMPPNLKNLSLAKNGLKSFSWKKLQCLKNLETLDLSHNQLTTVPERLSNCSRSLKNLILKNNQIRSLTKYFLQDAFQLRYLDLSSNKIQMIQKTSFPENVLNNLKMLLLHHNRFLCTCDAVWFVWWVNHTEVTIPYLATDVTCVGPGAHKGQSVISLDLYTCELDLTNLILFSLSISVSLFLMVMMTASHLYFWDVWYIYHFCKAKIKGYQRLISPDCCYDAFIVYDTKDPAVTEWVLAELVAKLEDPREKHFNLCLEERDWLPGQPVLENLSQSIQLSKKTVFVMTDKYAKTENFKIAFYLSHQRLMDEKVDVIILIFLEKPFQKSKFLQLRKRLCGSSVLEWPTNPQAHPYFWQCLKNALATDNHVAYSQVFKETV
Put plainly: HEK-Blue human TLR7 cells NF-κB SEAP reporter assay. The format is cell-based. As to conditions: stimulation for 20 hours, Quanti Blue 640 nm.
From the text: as §1
(In a reporter assay the amount or activity of a reporter protein is the signal.)

With `CCCN(CCC)C(=O)C1=Cc2ccc(C(=O)N[C@H]3C[C@@H]3c3ccccc3)cc2N=C(N)C1` [Example 1, 2-Amino-N8-[(1S,2R)-2-phenylcyclopropyl]-N4,N4-dipropyl-3H-1-benzazepine-4,8-dicarboxamide], the pEC50 (usually the negative decadic logarithm of the EC50, by convention in mol/L) is 8.70 on human TLR8 and 5.10 on human TLR7.
In the same order, the values of `CCCN(CCC)C(=O)C1=Cc2ccc(C(=O)NC3CCN(c4ccccc4)CC3)cc2N=C(N)C1` [Example 2, 2-Amino-N8-(1-phenyl-4-piperidyl)-N4,N4-dipropyl-3H-1-benzazepine-4,8-dicarboxamide] are 8.70 and 5.00.
For `CCCN(CCC)C(=O)C1=Cc2ccc(C(=O)NC3CN(c4ccccc4)C3)cc2N=C(N)C1` [Example 3, 2-Amino-N8-(1-phenylazetidin-3-yl)-N4,N4-dipropyl-3H-1-benzazepine-4,8-dicarboxamide] the same measures were 8.40 and below 4.00.
Consider `CCCN(CCC)C(=O)C1=Cc2ccc(C(=O)NC3CCCCC3)cc2N=C(N)C1` [Example 4, 2-Amino-N8-cyclohexyl-N4,N4-dipropyl-3H-1-benzazepine-4,8-dicarboxamide], for which the pEC50 is 8.40 on human TLR8 and 4.47 on human TLR7.
On to `CCCN(CCC)C(=O)C1=Cc2ccc(C(=O)NC3(c4ccccc4)CC3)cc2N=C(N)C1` [Example 5, 2-Amino-N8-(1-phenylcyclopropyl)-N4,N4-dipropyl-3H-1-benzazepine-4,8-dicarboxamide], for which the negative-log EC50 (pEC50) is 8.22 on human TLR8 and below 4.00 on human TLR7.
For `CCCN(CCC)C(=O)C1=Cc2ccc(C(=O)NC3(c4ccccc4)CCC3)cc2N=C(N)C1` [Example 6, 2-Amino-N8-(1-phenylcyclobutyl)-N4,N4-dipropyl-3H-1-benzazepine-4,8-dicarboxamide] the same measures were 8.15 and 4.89.
As to `CCCN(CCC)C(=O)C1=Cc2ccc(C(=O)N[C@@H](C)c3ccccc3)cc2N=C(N)C1` [Example 7, 2-Amino-N8-[(1S)-1-phenylethyl]-N4,N4-dipropyl-3H-1-benzazepine-4,8-dicarboxamide], the pEC50 on human TLR8 was 8.00; at human TLR7 it was 4.77.
In the same order, the values of `CCCN(CCC)C(=O)C1=Cc2ccc(C(=O)NCc3ccon3)cc2N=C(N)C1` [Example 8, 2-Amino-N8-(isoxazol-3-ylmethyl)-N4,N4-dipropyl-3H-1-benzazepine-4,8-dicarboxamide] are 7.92 and 4.40.
For `CCCN(CCC)C(=O)C1=Cc2ccc(C(=O)NCc3cncs3)cc2N=C(N)C1` [Example 9, 2-Amino-N4,N4-dipropyl-N8-(thiazol-5-ylmethyl)-3H-1-benzazepine-4,8-dicarboxamide] the same measures were 7.62 and 4.28.
For `CCCN(CCC)C(=O)C1=Cc2ccc(C(=O)NC(c3ccccc3)c3ccccc3)cc2N=C(N)C1` [Example 10, 2-Amino-N8-benzhydryl-N4,N4-dipropyl-3H-1-benzazepine-4,8-dicarboxamide] the same measures were 7.96 and below 4.00.
For the molecule `CCCN(CCC)C(=O)C1=Cc2ccc(C(=O)NC3(c4ccccc4)CCOCC3)cc2N=C(N)C1` [Example 11, 2-Amino-N8-(4-phenyltetrahydropyran-4-yl)-N4,N4-dipropyl-3H-1-benzazepine-4,8-dicarboxamide], the pEC50 is 7.54 at human TLR8 and below 4.00 on human TLR7.
On to `CCCN(CCC)C(=O)C1=Cc2ccc(C(=O)NCc3nccs3)cc2N=C(N)C1` [Example 12, 2-Amino-N4,N4-dipropyl-N8-(thiazol-2-ylmethyl)-3H-1-benzazepine-4,8-dicarboxamide], for which the pEC50 is 7.89 at human TLR8 and 4.38 on human TLR7.
Regarding `CCCN(CCC)C(=O)C1=Cc2ccc(C(=O)NC(C)(C)c3ccccc3)cc2N=C(N)C1` [Example 13, 2-Amino-N8-(1-methyl-1-phenyl-ethyl)-N4,N4-dipropyl-3H-1-benzazepine-4,8-dicarboxamide], the pEC50 at human TLR8 was 7.96; on human TLR7 it was 4.85.
